Results as given in patent US9161922B2, “Amine oxidase inhibitors” (Case Western Reserve University, priority 2005, dated 2015).
Where two headings read alike, the source gives them in different places.

How the values were obtained:
Format in all cases: biochemical
[1] = target: pichia pastoris lysyl oxidase (PPLO) (Komagataella pastoris (Yeast) (Pichia pastoris), UniProt Q96X16); assay: Pichia pastoris lysyl oxidase inhibition; conditions: 30 min
Protocol: (§1) In the following Examples, 0.9 mL aliquots of a solution of candidate inhibitor in 100 mM potassium phosphate buffer, pH 7.2 was mixed bovine plasma amine oxidase (0.1 mL, about […]) and incubated at 30° C. aerobically. Aliquots (0.1 mL) were periodically withdrawn using disposable calibrated Drummond micropipettes and diluted with 1.0 mL of benzylamine (5 mM in 50 mM sodium phosphate buffer, pH 7.2) in a 1 cm quartz cuvette (1.5 mL volume). The rate of oxidation of benzylamine to benzaldehyde was measured by recording the increase in absorbance at 250 nm for 1 minute and compared to the rate of benzylamine oxidation in a companion control solution of enzyme without inhibitor. The concentration of active BPAO was estimated from the rate of benzylamine oxidation. Inhibitory potency values (IC50 values) and partition values for inactivation of BPAO were measured at various times as in indicated in the Tables. IC50 values for lysyl oxidase (LO), arthrobacter globoformis amine oxidase (AGAO) and pichia pastoris lysyl oxidase (PPLO) were also measured in a similar manner.

[2] = target: bovine plasma amine oxidase (BPAO) (Bos taurus (Bovine), UniProt Q29437); assay: Inactivation of bovine plasma amine oxidase (benzylamine oxidation rate, absorbance at 250 nm)
Protocol: The rate of oxidation of benzylamine to benzaldehyde was measured by recording the increase in absorbance at 250 nm for 1 minute and compared to the rate of benzylamine oxidation in a companion control solution of enzyme without inhibitor. The concentration of active BPAO was estimated from the rate of benzylamine oxidation. Inhibitory potency values (IC50 values) and partition values for inactivation of BPAO were measured at various times as in indicated in the Tables. IC50 values for lysyl oxidase (LO), arthrobacter globoformis amine oxidase (AGAO) and pichia pastoris lysyl oxidase (PPLO) were also measured in a similar manner.

[3] = target: lysyl oxidase (LO) (Homo sapiens (Human), UniProt P28300); assay: Lysyl oxidase inhibition; conditions: for IC75: 20 min, assay performed at Boston University; for IC50 (BPAO)/IC75(LO): ratio BPAO over LO
Protocol: as §1

[4] = target: arthrobacter globiformis amine oxidase (AGAO) (Arthrobacter globiformis, UniProt P46881); assay: Arthrobacter globiformis amine oxidase inhibition
Protocol: as §1

Chain of bovine plasma amine oxidase (BPAO) (Q29437 17-762): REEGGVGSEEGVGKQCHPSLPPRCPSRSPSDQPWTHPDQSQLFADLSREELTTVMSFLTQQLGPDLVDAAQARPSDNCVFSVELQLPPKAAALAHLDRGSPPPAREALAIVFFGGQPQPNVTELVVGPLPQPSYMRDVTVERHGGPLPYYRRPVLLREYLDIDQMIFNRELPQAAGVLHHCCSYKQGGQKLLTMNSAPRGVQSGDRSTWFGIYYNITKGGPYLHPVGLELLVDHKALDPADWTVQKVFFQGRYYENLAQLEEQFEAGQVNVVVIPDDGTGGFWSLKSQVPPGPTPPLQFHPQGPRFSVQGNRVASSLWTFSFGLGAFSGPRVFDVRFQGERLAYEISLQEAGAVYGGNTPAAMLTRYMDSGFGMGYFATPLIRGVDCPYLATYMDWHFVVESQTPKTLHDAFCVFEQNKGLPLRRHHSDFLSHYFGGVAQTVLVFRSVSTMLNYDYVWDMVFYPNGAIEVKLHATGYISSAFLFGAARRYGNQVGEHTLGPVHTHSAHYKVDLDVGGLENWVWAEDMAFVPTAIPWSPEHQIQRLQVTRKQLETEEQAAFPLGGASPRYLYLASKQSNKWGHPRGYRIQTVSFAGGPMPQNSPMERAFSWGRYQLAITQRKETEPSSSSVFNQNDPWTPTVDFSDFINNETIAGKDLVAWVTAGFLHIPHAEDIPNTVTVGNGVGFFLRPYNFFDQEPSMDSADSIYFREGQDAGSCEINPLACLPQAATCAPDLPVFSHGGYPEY
Chain of lysyl oxidase (LO) (P28300 169-417, species assumed): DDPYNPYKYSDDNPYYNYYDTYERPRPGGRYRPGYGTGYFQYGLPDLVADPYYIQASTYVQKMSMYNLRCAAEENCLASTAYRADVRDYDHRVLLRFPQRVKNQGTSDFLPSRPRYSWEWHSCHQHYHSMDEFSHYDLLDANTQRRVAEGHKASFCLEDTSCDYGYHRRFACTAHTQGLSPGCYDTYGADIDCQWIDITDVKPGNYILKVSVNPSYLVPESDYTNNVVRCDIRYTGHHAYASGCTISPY
Chain of pichia pastoris lysyl oxidase (PPLO) (Q96X16 entry or part of it): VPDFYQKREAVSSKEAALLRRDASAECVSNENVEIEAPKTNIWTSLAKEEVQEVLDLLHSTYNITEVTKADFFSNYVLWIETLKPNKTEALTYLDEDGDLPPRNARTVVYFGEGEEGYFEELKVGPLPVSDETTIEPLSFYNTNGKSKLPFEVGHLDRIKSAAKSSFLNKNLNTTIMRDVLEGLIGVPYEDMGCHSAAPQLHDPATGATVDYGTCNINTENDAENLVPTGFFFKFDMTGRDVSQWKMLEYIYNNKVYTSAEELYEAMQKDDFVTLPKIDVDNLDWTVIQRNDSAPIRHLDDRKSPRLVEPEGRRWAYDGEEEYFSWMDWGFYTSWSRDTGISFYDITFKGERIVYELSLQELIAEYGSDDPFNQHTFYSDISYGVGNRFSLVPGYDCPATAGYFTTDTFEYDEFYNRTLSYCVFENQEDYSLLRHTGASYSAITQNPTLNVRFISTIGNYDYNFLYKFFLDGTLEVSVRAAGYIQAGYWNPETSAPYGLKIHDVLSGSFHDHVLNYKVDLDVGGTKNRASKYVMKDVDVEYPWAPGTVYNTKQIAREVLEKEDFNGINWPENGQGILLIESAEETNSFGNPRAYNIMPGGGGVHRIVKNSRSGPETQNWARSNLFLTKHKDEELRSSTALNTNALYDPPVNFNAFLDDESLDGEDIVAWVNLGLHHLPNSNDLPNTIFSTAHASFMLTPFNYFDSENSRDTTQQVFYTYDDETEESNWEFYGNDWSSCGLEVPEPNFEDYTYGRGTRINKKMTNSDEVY

Row | SMILES | IC50 [1] | IC50 [2] | IC75 [3] | IC50 (BPAO)/IC75(LO) [3] | IC50 ([4]; determined on the basis of reversible competitive inhibition, read-out: IC50 (30 min) AGAO) | IC50 ([4]; 30 min)
1 | CCN(CC)C(=O)C(N)CC#CCN (stereo not shown) [R = NEt2] | 5000 µM | 10000 µM | 250 µM | 40 | 7 µM | 
2 | CCOC(=O)CNC(=O)CNC(=O)C(N)CC#CCN (stereo not shown) [R = NHCH2CONHCH2COOEt] |  | 90 µM | 650 µM | 0.14 |  | 3500 µM
3 | NCC#CCC(N)C(=O)NCCc1ccccc1 (stereo not shown) [R = NHCH2CH2Ph] |  | 1800 µM | 450 µM | 1.11 |  | 250 µM
